Measured values taken from patent US20220289751A1, “COMPOUND HAVING KDM5 INHIBITORY ACTIVITY AND PHARMACEUTICAL USE THEREOF” (ONO PHARMACEUTICAL CO., LTD., priority 2019, published 2022).
pIC50: −log10 of the molar value. Like-named read-outs stand apart in the source and are kept apart here.

Columns and labels:
KDM5A protein = biological target: T1, KDM5A protein (Homo sapiens, UniProt P29375); test: Biochemical KDM5A inhibition assay (HTRF); conditions: for pIC50: read-out: IC50 value; for IC50: comparative compounds, enzyme concentration not stated, read-out: IC50 values (μM) of comparative compound
T1 construct: purchased BPS Bioscience 50110
T1 sequence (P29375 whole entry): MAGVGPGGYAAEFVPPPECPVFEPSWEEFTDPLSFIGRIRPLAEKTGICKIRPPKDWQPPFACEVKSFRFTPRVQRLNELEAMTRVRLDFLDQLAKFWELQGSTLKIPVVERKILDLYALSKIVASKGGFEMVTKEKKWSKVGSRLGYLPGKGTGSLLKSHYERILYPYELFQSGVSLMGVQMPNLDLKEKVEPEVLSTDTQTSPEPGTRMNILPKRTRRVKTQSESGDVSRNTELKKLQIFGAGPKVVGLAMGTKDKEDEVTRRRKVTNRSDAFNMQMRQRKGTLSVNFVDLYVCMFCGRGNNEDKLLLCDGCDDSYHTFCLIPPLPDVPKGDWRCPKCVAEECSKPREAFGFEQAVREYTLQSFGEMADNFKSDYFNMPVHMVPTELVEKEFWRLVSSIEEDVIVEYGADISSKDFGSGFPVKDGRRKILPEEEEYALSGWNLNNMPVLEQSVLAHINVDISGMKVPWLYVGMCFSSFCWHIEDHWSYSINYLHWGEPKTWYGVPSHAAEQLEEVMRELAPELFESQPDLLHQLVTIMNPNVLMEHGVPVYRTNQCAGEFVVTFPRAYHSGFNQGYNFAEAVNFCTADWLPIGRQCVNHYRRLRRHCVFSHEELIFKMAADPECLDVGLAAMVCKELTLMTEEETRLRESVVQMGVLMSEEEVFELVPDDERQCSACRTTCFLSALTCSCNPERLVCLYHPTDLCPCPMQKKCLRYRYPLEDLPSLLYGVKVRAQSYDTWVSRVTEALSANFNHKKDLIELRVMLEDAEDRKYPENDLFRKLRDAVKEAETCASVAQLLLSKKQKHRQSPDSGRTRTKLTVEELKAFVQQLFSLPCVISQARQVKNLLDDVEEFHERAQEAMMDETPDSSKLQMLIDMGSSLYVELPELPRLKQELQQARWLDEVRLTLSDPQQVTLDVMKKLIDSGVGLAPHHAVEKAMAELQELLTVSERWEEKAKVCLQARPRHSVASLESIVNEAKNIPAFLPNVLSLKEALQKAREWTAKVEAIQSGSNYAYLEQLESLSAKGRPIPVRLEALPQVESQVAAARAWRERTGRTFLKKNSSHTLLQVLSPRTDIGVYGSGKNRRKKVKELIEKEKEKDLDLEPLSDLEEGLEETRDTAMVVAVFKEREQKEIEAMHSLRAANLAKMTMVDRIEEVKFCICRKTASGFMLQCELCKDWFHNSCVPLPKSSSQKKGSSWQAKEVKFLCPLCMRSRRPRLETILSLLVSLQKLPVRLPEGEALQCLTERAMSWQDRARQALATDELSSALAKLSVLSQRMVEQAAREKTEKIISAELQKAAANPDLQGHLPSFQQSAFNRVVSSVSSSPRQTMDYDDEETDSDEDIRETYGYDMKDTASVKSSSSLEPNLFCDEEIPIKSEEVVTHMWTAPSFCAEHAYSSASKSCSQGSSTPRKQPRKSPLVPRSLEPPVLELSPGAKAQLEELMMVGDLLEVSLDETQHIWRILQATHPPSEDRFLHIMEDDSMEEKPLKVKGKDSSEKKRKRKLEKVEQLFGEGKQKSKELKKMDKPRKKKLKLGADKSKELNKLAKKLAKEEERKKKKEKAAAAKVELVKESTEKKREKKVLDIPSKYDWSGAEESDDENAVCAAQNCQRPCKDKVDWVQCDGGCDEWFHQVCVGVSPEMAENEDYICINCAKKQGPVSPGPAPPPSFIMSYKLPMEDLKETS
Method: Using 384-well white ProxiPlates (PerkinElmer), representative compounds were characterized for their inhibition of KDM5A using HTRF® technology (Cisbio Bioassays). Briefly, the test compounds, reference compounds, and DMSO control (typical compound concentration range 300 pM-10 μM, final assay concentration (FAC) of DMSO 0.5%) were added to 384-well plate by the Echo® acoustic dispensing platform (Labcyte). Three (3) μ1 of KDM5A protein (BPS Bioscience, Cat #50110)(10 or 20 nM FAC) in assay buffer (50 mM MES, 50 mM NaCl, 2 mM ascorbic acid, 0.01% v/v Tween 20, pH 6.5) was added to wells and plates were incubated for 10 minutes at room temperature. Then, 3 μl of biotin-labelled H3K4-me3 substrate (Anaspec Cat #AS-64357-1; 100 nM FAC), alpha-ketoglutaric acid ([…]) and Fe(II)SO4 (FAC 100 μM) in assay buffer was added and plates were incubated for 60 minutes at room temperature. The reaction was stopped with the addition of 6 μl of anti-H3-[…]-Eu(K) (Cisbio Bioassays Cat #61KA2KAE; 0.025 μg/ml FAC)+Streptavidin XL665 (Cisbio Bioassays Cat #610SAXLA; 0.5 μg/ml FAC) in HTRF detection buffer (Cisbio Bioassays Cat #62SDBRDD). The mixture was incubated for 90 minutes at room temperature before 340 nm excitation and measurement of dual emission at 620 nm and 665 nm. The raw data (a 665 nm and a 620 nm reading from each well) for individual assay plates were analyzed. The ratio of emissions was calculated using the following calculation: Ratio=(665 nm emission/620 nm emission)*10000. Using DMSO control (maximum response or 0% inhibition) and 1 μM reference control compound (minimum response or 100% inhibition), percentage inhibition values for each well were calculated using the median values of the minimum and maximum control wells and the following calculation: % Inhibition=(Well ratio-max control ratio)/(min control ratio-max control ratio)*100. Compound IC50 values were calculated from graphs of % inhibition plotted against compound concentration, using a four parameter curve fit.

[1] = Permeability in wild type MDCK cell lines (MDCK-WT); type: in vitro ADME; conditions: dog, MDCK, pH 7.4, apical to basal, 10 μM test compound
Method: Wild type MDCKII cells were seeded onto an apical chamber 3 days prior to running the assay at a density of 2.3×10^5 cells per well. The integrity of cell monolayers was evaluated by examining the permeability of lucifer yellow assay using a Spectramax Gemini XS with excitation and emission at 426 nm and 538 nm respectively. Permeation of Lucifer Yellow should be ≤10×10^−6 cm/s for the experimental data to be accepted. The cell monolayers were preincubated in transport buffer (HBSS with CaCl2 and MgCl2)+25 mM HEPES, adjust to pH 7.4) at 37° C. or more than 20 min. Transport experiment was initiated by adding test compound solution (10 μM) to the apical chamber. Samples were obtained from basal chamber at 60 min, followed by addition of ice-cold acetonitrile containing internal standard. LC-MS/MS analysis was conducted as specified below. Standard calibration samples were prepared using the same matrix and analysed in the same manner. [table] […] Papp(cm/s)=(dCB/dt)×VB/(A×CA) dCB/dt is the slope of the cumulative concentration in basal side versus time VB is the volume of the basal compartment A is the area of the membrane surface area CA is the initial concentration in apical side

[2] = comparative compounds, read-out: permeabilities in MDCK-WT of comparative compound

pIC50 (KDM5A protein; 20 nM enzyme concentration) | Papp A→B at 60 min, 10 μM ([1]; read-out: MDCK-WT (Papp)) | SMILES | further results
7.05 | – | CC(=O)NCCn1cc(-c2nn3c(-c4c[nH]cn4)cnc3c(=O)n2C(C)C)cn1 [EXAMPLE 121, N-(2-(4-(7-(1H-Imidazol-4-yl)-3-isopropyl-4-oxo-3,4-dihydroimidazo[2,1-f][1,2,4]triazin-2-yl)-1H-pyrazol-1-yl)ethyl)acetamide] | –
– | 16 ×10⁻⁶ cm/s | O=C(c1cc(C2CCCCC2)[nH]n1)N1CC2(C1)CN(C(=O)C1CC1)C2 [EXAMPLE 73, (5-Cyclohexyl-1H-pyrazol-3-yl)(6-(cyclopropanecarbonyl)-2,6-diazaspiro[3.3]heptan-2-yl)methanone] | –
– | – | CC(C)c1c(-c2cnn(CC3CC3)c2)[nH]c2c(C#N)cnn2c1=O [5-(1-(cyclopropylmethyl)-1H-pyrazol-4-yl)-6-isopropyl-7-oxo-4,7-dihydropyrazolo[1,5-a]pyrimidine-3-carbonitrile, reference compound] | IC50 (KDM5A protein): 0.005 µM; Papp A→B at 60 min, 10 μM [1, 2]: 5.6 ×10⁻⁶ cm/s
5.54 | – | Cc1ccc(-n2cc(-c3cnc4c(=O)n(C(C)C)c(C)nn34)cn2)nc1 [EXAMPLE 67, 3-Isopropyl-2-methyl-7-(1-(5-methylpyridin-2-yl)-1H-pyrazol-4-yl)imidazo[2,1-f][1,2,4]triazin-4(3H)-one] | –
7.52 | – | CC(C)n1c(-c2cnn(CC3CC3)c2)nn2c(-c3cnc[nH]3)cnc2c1=O [EXAMPLE 19, 2-(1-(Cyclopropylmethyl)-1H-pyrazol-4-yl)-7-(1H-imidazol-5-yl)-3-isopropylimidazo[2,1-f][1,2,4]triazin-4(3H)-one] | –
– | 20 ×10⁻⁶ cm/s | CC(C)c1cc(C(=O)N2CC3(C2)CN(C(=O)c2cccs2)C3)n[nH]1 [EXAMPLE 99, (5-Isopropyl-1H-pyrazol-3-yl)(6-(thiophene-2-carbonyl)-2,6-diazaspiro[3.3]heptan-2-yl)methanone] | –
6.70 | 20 ×10⁻⁶ cm/s | CC(C)n1c(-c2cccs2)nn2c(-c3cnc[nH]3)cnc2c1=O [EXAMPLE 26, 7-(1H-Imidazol-5-yl)-3-isopropyl-2-(thiophen-2-yl)imidazo[2,1-f][1,2,4]triazin-4(3H)-one] | –
– | 8 ×10⁻⁶ cm/s | O=C(NC1CN(C(=O)c2cc(C3CC3)[nH]n2)C1)C1CC12CC2 (single isomer, unassigned) [EXAMPLE 104, N-(1-(5-cyclopropyl-1H-pyrazole-3-carbonyl)azetidin-3-yl)spiro[2.2]pentane-1-carboxamide] | –
8.10 | – | CC(C)c1cc(C(=O)N2CC3(C2)CN(C(=O)c2nn(C)cc2F)C3)n[nH]1 [EXAMPLE 126, [2-(4-Fluoro-1-methyl-pyrazole-3-carbonyl)-2,6-diazaspiro[3.3]heptan-6-yl]-(5-isopropyl-1H-pyrazol-3-yl)methanone] | –
7.40 | 25 ×10⁻⁶ cm/s | CC(C)n1c(-c2cnn(CC3CC3)c2)nn2c(-c3cn[nH]c3)cnc2c1=O [EXAMPLE 20, 2-(1-(Cyclopropylmethyl)-1H-pyrazol-4-yl)-3-isopropyl-7-(1H-pyrazol-4-yl)imidazo[2,1-f][1,2,4]triazin-4(3H)-one] | –
7.52 | – | CCNC(=O)N1CC2(C1)CN(C(=O)c1cc(C(C)C)[nH]n1)C2 [EXAMPLE 41, N-Ethyl-6-(5-isopropyl-1H-pyrazole-3-carbonyl)-2,6-diazaspiro[3.3]heptane-2-carboxamide] | –
– | – | CC(C)c1cc(C(=O)N2CC[C@@H](NC(=O)C3CC3)C2)[nH]n1 [(R)—N-(1-(3-isopropyl-1H-pyrazole-5-carbonyl)pyrrolidin-3-yl)cyclopropane carboxamide, reference compound] | IC50 (KDM5A protein): 0.02 µM; Papp A→B at 60 min, 10 μM [1, 2]: 4.9 ×10⁻⁶ cm/s
7.40 | 10 ×10⁻⁶ cm/s | CC(C)n1c(-c2ccc3c(ccn3C)c2)nn2c(-c3cn[nH]c3)cnc2c1=O [EXAMPLE 21, 3-Isopropyl-2-(1-methyl-1H-indol-5-yl)-7-(1H-pyrazol-4-yl)imidazo[2,1-f][1,2,4]triazin-4(3H)-one] | –
7.52 | – | CC(C)c1cc(C(=O)N2CC3(C2)CN(C(=O)C2(C)CC2)C3)n[nH]1 [EXAMPLE 96, (5-Isopropyl-1H-pyrazol-3-yl)(6-(1-methylcyclopropane-1-carbonyl)-2,6-diazaspiro[3.3]heptan-2-yl)methanone] | –
7.00 | – | CC(C)n1cnc(C(=O)N2CC3(C2)CN(C(=O)C2CC2)C3)c1 [EXAMPLE 81, (6-(Cyclopropanecarbonyl)-2,6-diazaspiro[3.3]heptan-2-yl)(1-isopropyl-1H-imidazol-4-yl)methanone] | –
6.00 | – | CC(C)n1c(N(C)CCC2CCCO2)nn2c(-c3cn[nH]c3)cnc2c1=O (single isomer, unassigned) [EXAMPLE 62, 3-Isopropyl-2-(methyl(2-(tetrahydrofuran-2-yl)ethyl)amino)-7-(1H-pyrazol-4-yl)imidazo[2,1-f][1,2,4]triazin-4(3H)-one] | –
6.70 | 64 ×10⁻⁶ cm/s | CC(C)n1c(-c2ccccc2)nc2c(C(N)=O)ccnc2c1=O [EXAMPLE 31, 3-isopropyl-4-oxo-2-phenyl-3,4-dihydropyrido[3,2-d]pyrimidine-8-carboxamide] | –
– | 19 ×10⁻⁶ cm/s | CC(C)c1cc(C(=O)N2CC3(CON(C(=O)C(C)(C)C)C3)C2)n[nH]1 [EXAMPLE 132, 1-[2-(5-Isopropyl-1H-pyrazole-3-carbonyl)-6-oxa-2,7-diazaspiro[3.4]octan-7-yl]-2,2-dimethyl-propan-1-one] | –
6.70 | – | CC(C)c1cc(C(=O)N2CC(NC(=O)C3CC3)C2)n[nH]1 [EXAMPLE 80, N-(1-(5-Isopropyl-1H-pyrazole-3-carbonyl)azetidin-3-yl)cyclopropanecarboxamide] | –
– | 68 ×10⁻⁶ cm/s | CC(C)c1cc(C(=O)N2C[C@@H]3[C@H](C2)[C@H]3C(=O)C2CC2)n[nH]1 [EXAMPLE 94, ((1R,5S,6r)-6-(cyclopropanecarbonyl)-3-azabicyclo[3.1.0]hexan-3-yl)(5-isopropyl-1H-pyrazol-3-yl)methanone] | pIC50 (KDM5A protein; * measured at 10 nM enzyme concentration): 5.82
6.40 | – | CC(C)c1cc(C(=O)c2cnn3c(=O)c(C(C)C)c(-c4ccccc4)n(C)c23)n[nH]1 [EXAMPLE 68, 6-Isopropyl-3-(5-isopropyl-1H-pyrazole-3-carbonyl)-4-methyl-5-phenylpyrazolo[1,5-a]pyrimidin-7 (4H)-one] | –
7.30 | – | CC(C)n1c(-c2cccs2)nn2c(-c3cn[nH]c3)cnc2c1=O [EXAMPLE 27, 3-Isopropyl-7-(1H-pyrazol-4-yl)-2-(thiophen-2-yl)imidazo[2,1-f][1,2,4]triazin-4(3H)-one] | –
7.30 | – | CC(=O)NCCn1cc(-c2nn3c(-c4cn[nH]c4)cnc3c(=O)n2C(C)C)cn1 [EXAMPLE 47, N-(2-(4-(3-isopropyl-4-oxo-7-(1H-pyrazol-4-yl)-3,4-dihydroimidazo[2,1-f][1,2,4]triazin-2-yl)-1H-pyrazol-1-yl)ethyl)acetamide] | –
– | 9 ×10⁻⁶ cm/s | CC(c1ccccc1)c1cc(C(=O)N2CC3(C2)CN(C(=O)C2CC2)C3)n[nH]1 (single isomer, unassigned) [EXAMPLE 89, (6-(Cyclopropanecarbonyl)-2,6-diazaspiro[3.3]heptan-2-yl)(5-(1-phenylethyl)-1H-pyrazol-3-yl)methanone] | –
6.52 | 37 ×10⁻⁶ cm/s | CC(C)n1c(-c2cnn(CC3CC3)c2)nc2c(C(N)=O)ccnc2c1=O [EXAMPLE 30, 2-(1-(Cyclopropylmethyl)-1H-pyrazol-4-yl)-3-isopropyl-4-oxo-3,4-dihydropyrido[3,2-d]pyrimidine-8-carboxamide] | –
